Reference: ChEMBL document CHEMBL4422617, “Recent advances in the discovery of small molecules targeting glioblastoma” (Eur J Med Chem, 2019)
≈ marks a conversion by molar mass, not a printed value. Blank lines part the entries; values can stand above or below the compound they belong to.

Tests used:
[1] = Antiproliferative activity against mouse GL26 cells after 120 hrs by WST-1 assay; type: functional, cell-based; conditions: GL26, 120 h
U-251 [2] = assay: Antiproliferative activity against human U251 cells after 120 hrs by WST-1 assay; type: functional, cell-based; conditions: U-251, 120 h
U-87 MG [3] = assay: Antiproliferative activity against human U87MG cells after 48 hrs by MTS assay; type: functional, cell-based, U-87MG ATCC
U373 MG [4] = assay: Antiproliferative activity against human U373MG cells after 48 hrs by MTS assay; type: functional, cell-based, U-373MG ATCC
[5] = Antiproliferative activity against human RN1 cells assessed as reduction in cell viability after 72 hrs by AlamarBlue assay; type: functional, cell-based; conditions: RN1, 72 h
U-251 [6] = assay: Antiproliferative activity against human U251 cells assessed as reduction in cell viability after 72 hrs in presence of irradiation by AlamarBlue assay; type: functional, cell-based; conditions: U-251, light or radiation study
[7] = Antiproliferative activity against human RN1 cells assessed as reduction in cell viability after 72 hrs in presence of irradiation by AlamarBlue assay; type: functional, cell-based; conditions: RN1, light or radiation study
U-87 MG [8] = assay: Antiproliferative activity against human U87MG cells after 96 hrs by SRB assay; type: functional, U-87MG ATCC
U-251 [9] = assay: Antiproliferative activity against human U251 cells by MTT assay; type: functional, cell-based
U-87 MG [10] = assay: Antiproliferative activity against human U87MG cells after 24 hrs by WST-1 assay; type: functional, cell-based, U-87MG ATCC
[11] = Antiproliferative activity against human M059K cells after 48 hrs by WST-1 assay; type: functional, cell-based
U-87 MG [12] = assay: Cytotoxicity against human U87 cells after 72 hrs by AlamarBlue assay; type: functional, cell-based, U-87MG ATCC
U-87 MG [13] = assay: Cytotoxicity against human U87 cells expressing EGFRvIII after 72 hrs by AlamarBlue assay; type: functional, cell-based, U-87MG ATCC
U-251 [14] = assay: Cytotoxicity against human U251 cells after 72 hrs by AlamarBlue assay; type: functional, cell-based; conditions: U-251, 72 h
GBM = assay: Cytotoxicity against GBM cells derived from human patient after 72 hrs by AlamarBlue assay; type: functional, cell-based
SF-295 = assay: Antiproliferative activity against human SF295 cells after 72 hrs by MTT assay; type: functional, cell-based; conditions: SF-295, 72 h
LN-229 [15] = assay: Antiproliferative activity against human LN229 cells after 5 days by AlamarBlue assay; type: functional, cell-based; conditions: LN-229, 120 h
T98G [16] = assay: Antiproliferative activity against human T98G cells after 5 days by AlamarBlue assay; type: functional, cell-based; conditions: 120 h
U-87 MG [17] = assay: Antiproliferative activity against human U87 cells after 5 days by AlamarBlue assay; type: functional, cell-based, U-87MG ATCC; conditions: 120 h
U138-MG = assay: Antiproliferative activity against human U138MG cells after 5 days by AlamarBlue assay; type: functional, cell-based; conditions: 120 h
[18] = Antiproliferative activity against human U373 cells after 5 days by AlamarBlue assay; type: functional, cell-based, U-373MG ATCC; conditions: U373 MG, 120 h
U-87 MG [19] = assay: Antiproliferative activity against human U87MG cells after 72 hrs by MTT assay; type: functional, cell-based, U-87MG ATCC
[20] = Antiproliferative activity against human GBM95 cells after 72 hrs by MTT assay; type: functional, cell-based
[21] = Cytotoxicity against patient derived GSC after 96 hrs by CellTiter-Glo assay; type: functional, Homo sapiens
U-251 [22] = assay: Antiproliferative activity against human U251 cells after 5 days by CyQuantGR dye-based fluorescence assay; type: functional, cell-based; conditions: U-251, 120 h
U-87 MG [23] = assay: Antiproliferative activity against human U87MG cells after 5 days by CyQuantGR dye-based fluorescence assay; type: functional, cell-based, U-87MG ATCC; conditions: 120 h
T98G [24] = assay: Antiproliferative activity against human T98G cells after 5 days by CyQuantGR dye-based fluorescence assay; type: functional, cell-based; conditions: 120 h
U-118-MG = assay: Antiproliferative activity against human U118MG cells after 5 days by CyQuantGR dye-based fluorescence assay; type: functional, cell-based; conditions: 120 h
[25] = Tmax in […] mouse at 25 micromol/kg, ip administered as single dose by mass spectrometric analysis; type: ADME, organism-based; conditions: in vivo, 25 µmol/kg
[26] = Half life in […] mouse at 25 micromol/kg, ip administered as single dose by mass spectrometric analysis; type: ADME, organism-based; conditions: in vivo, 25 µmol/kg
[27] = Cmax in […] mouse at 25 micromol/kg, ip administered as single dose by mass spectrometric analysis; type: ADME, organism-based; parameters: route intraperitoneal; conditions: in vivo, 25 µmol/kg
U-87 MG [28] = assay: Inhibition of cell proliferation of human U87 cells over-expressing EGFRvIII at 5 uM; type: functional, U-87MG ATCC
LN-229 [29] = assay: Inhibition of cell proliferation of human LN229 cells at 5 uM; type: functional
U-251 [30] = assay: Inhibition of cell proliferation of human U251 cells at 5 uM; type: functional
SNB-19 = assay: Antiproliferative activity against human SNB19 cells after 72 hrs by WST-1 assay; type: functional, cell-based; conditions: SNB-19, 72 h
U373 MG [31] = assay: Antiproliferative activity against human U373MG cells after 72 hrs by MTS assay; type: functional, cell-based, U-373MG ATCC
U-87 MG [32] = assay: Antiproliferative activity against human U87MG cells after 72 hrs by MTS assay; type: functional, cell-based, U-87MG ATCC
T98G [33] = assay: Antiproliferative activity against human T98G cells after 72 hrs by MTS assay; type: functional, cell-based
[34] = Antiproliferative activity against human PRT-HU2 cells after 72 hrs by MTS assay; type: functional, cell-based
Histone deacetylase = assay: Inhibition of mouse liver HDAC using Boc-Lys (Ac)-AMC as substrate preincubated for 5 mins followed by substrate addition and measured after 30 mins by fluorescence assay
U-251 [35] = assay: Antiproliferative activity against human U251 cells after 24 hrs by SRB assay; type: functional, cell-based; conditions: U-251, 24 h
U-87 MG [36] = assay: Antiproliferative activity against human U87 cells assessed as reduction in cell viability after 72 hrs by AlamarBlue assay; type: functional, cell-based, U-87MG ATCC
U-87 MG [37] = assay: Antiproliferative activity against human U87 cells over-expressing EGFRvIII assessed as reduction in cell viability after 72 hrs by AlamarBlue assay; type: functional, cell-based, U-87MG ATCC
U-251 [38] = assay: Antiproliferative activity against human U251 cells assessed as reduction in cell viability after 72 hrs by AlamarBlue assay; type: functional, cell-based; conditions: U-251, 72 h

- IC50 (U-251 [9]): 5000 nM
SMILES: CCN(CC)CCCC(C)Nc1c2ccc(Cl)cc2nc2ccc(OC)cc12 (centres undefined) [QUINACRINE]

- IC50 (U-87 MG [10]): 25000 nM
SMILES: COc1ccc(/N=C/c2c(O)ccc3c2oc2cc(Cl)c(O)c(Cl)c23)cc1
- IC50 [11]: 40000 nM

- IC50 (U-87 MG [32]): 14900 nM
SMILES: Clc1ccccc1CNc1ncnc2c1cnn2CC(Cl)c1ccc(Br)cc1 (centres undefined)
- IC50 (U373 MG [31]): 17900 nM
- IC50 (T98G [33]): 12500 nM
- IC50 [34]: 14300 nM

- IC50 (Histone deacetylase): 1.5 nM
- IC50 (U-251 [35]): 700 nM
SMILES: O=C(CCCCCn1cc(C(=O)Nc2nc3ccccc3s2)c(=O)c2ccccc21)NO

- EC50 (U-87 MG [36]): 1400 nM
- EC50 (U-87 MG [37]): 1700 nM
- EC50 (U-251 [38]): 1600 nM
SMILES: O=C(CCCc1ccc(-c2cccnc2F)cc1)Nc1ccc(O)cc1

The next lines start with the compound.

SMILES: C=C1/C(=C/C=C2\CCC[C@]3(C)[C@@H]([C@H](C)CCCCNC(=O)CCC(=O)O)CC[C@@H]23)C[C@@H](O)C[C@@H]1O
- IC50 [1]: 0.016 nM
- IC50 (U-251 [2]): 0.457 nM

SMILES: O=C1[C@@H]2CS[C@]3(C(=O)Nc4ccccc43)N2C(=O)N1Cc1ccc(Cl)cc1
- IC50 (U-87 MG [3]): 2500 nM
- IC50 (U373 MG [4]): 5700 nM

SMILES: COc1cc(COc2ccc(NC(=O)CCCc3ccc(-c4cccnc4F)cc3)cc2)c([N+](=O)[O-])cc1OC
- EC50 [5]: 37400 nM
- EC50 (U-251 [6]): 1300 nM
- EC50 [7]: 300 nM

SMILES: NC1(Cc2ccc(Cl)cc2)CCN(c2ncnc3[nH]ccc23)CC1
- GI50 (U-87 MG [8]): 6300 nM

SMILES: O=C(CCCc1ccc(-c2cc3ccccc3cn2)cc1)Nc1ccc(O)cc1
- EC50 (U-87 MG [12]): 600 to 1300 nM
- EC50 (U-87 MG [13]): 600 to 1300 nM
- EC50 (U-251 [14]): 600 to 1300 nM
- EC50 (GBM): 540 nM

SMILES: CC1(C)OC2=C(C(=O)C(=O)c3ccccc32)[C@H](n2cc(C[Se]c3ccc(F)cc3)nn2)[C@H]1Br
- IC50 (SF-295): 1480 nM

SMILES: O=C(Nc1ccc([N+](=O)[O-])cc1Cl)c1cc(Cl)ccc1O [NICLOSAMIDE]
- IC50 (LN-229 [15]): 300 to 1200 nM
- IC50 (T98G [16]): 300 to 1200 nM
- IC50 (U-87 MG [17]): 300 to 1200 nM
- IC50 (U138-MG): 300 to 1200 nM
- IC50 [18]: 300 to 1200 nM

SMILES: CC(C)=CCC1=C(NCCCCN(CN)CCCc2ccccc2)C(=O)c2ccccc2C1=O
- IC50 (U-87 MG [19]): 4300 nM
- IC50 [20]: 6600 nM

SMILES: CCN(CC)C(=S)SSC(=S)N(CC)CC
- IC50 [21]: 31.1 nM

SMILES: Cc1ccc(N(CCn2nnc3c(C(N)=O)ncn3c2=O)CCn2nnc3c(C(N)=O)ncn3c2=O)cc1
- IC50 (U-251 [22]): 5200 nM
- IC50 (U-87 MG [23]): 14000 nM
- IC50 (T98G [24]): 11300 nM
- IC50 (U-118-MG): 10000 nM
- Tmax [25]: 10 min
- half-life [26]: 14 min
- Cmax [27]: 260 nM

SMILES: O=c1[nH]c2ncc(-c3ccc(-c4nc[nH]n4)cc3)nc2n1CCC1CCOCC1
- inhibition at 5 µM (U-87 MG [28]): 60%
- inhibition at 5 µM (LN-229 [29]): 60%
- inhibition at 5 µM (U-251 [30]): 60%

SMILES: C#CCSc1nc(Cl)nc2nc(SCC#C)n(C)c12
- IC50 (SNB-19): 0.07 µg/mL (≈ 0.227 µM)
